Source: US11116819B2, “Methods and compositions for mobilizing stem cells” (President and Fellows of Harvard College, priority 2013, dated 2021)
Entries after “also recorded” stand apart in the source; their conditions may differ.

Columns and labels:
[1] = system: long term reconstituting cells (HSPC); assay: Competitive transplantation of mobilized peripheral blood into lethally irradiated congenic recipients (incl. serial transplant); assay type: in vivo, mice; details: for potency of mobilization with AMD3100 compared with AMD3100 alone: AMD3100 5 mg/kg plus heparin 100 U/mouse or protamine sulfate 40 mg/kg, relative frequency of engrafted donor cells, AMD3100 alone = 1; for stem cell mobilization by the agent alone: Example 3, data not shown; for mobilization of long term reconstituting cells (PB competitive transplantation, primary recipients): wild type mice, single dose heparin 100 U/mouse added to G-CSF regimen
Method: Blood from animals treated with single dose AMD3100 alone (5 mg/kg) or AMD3100 plus heparin (100 U/mouse) or protamine sulfate (40 mg/kg) was used in transplantation of lethally irradiated congenic hosts and the relative frequency of engrafted donor cells is indicated. Line at 1=AMD3100 alone. Results are from 6-10 animals/group.
Hypothesizing that endogenous HSPG could be competed with by known pharmacologic HSPG, we examined whether heparin sulfate could mimic the EXT1 deletion effect on stem cell localization. Initially, this was done using a single dose of heparin sulfate (100 U/mouse) after a standard G-CSF mobilization regimen, harvesting the peripheral blood and using it to reconstitute lethally irradiated congenic recipients (FIG. 3). The primary recipients were then harvested after 4 months and used to transplant secondary lethally irradiated recipients.
For non-competitive BM transplantation, to create the chimeras described in FIG. 1a, one million whole BM cells from B6.SJL (CD45.1) mice were transplanted into lethally irradiated (9.5 Gy from a Cesium source 4-24 hours before transplantation) Ext1-loxP/loxP-Mx1cre (CD45.2) recipients six-to-eight weeks before pIpC administration. Neutrophil and platelet recovery assay was performed as previously described (Hoggatt et al., 2013). Briefly, 3 million mobilized PB mononuclear cells (MNC) from C57BL/6J (CD45.2) mice were transplanted into lethally irradiated B6.SJL (CD45.1) mice and followed up for at least 36 days. For transplantation without cytotoxic conditioning, 1, 4 or 8 million whole BM cells from B6.SJL mice were transplanted into Ext1-loxP/loxP-Mx1cre recipients three weeks after pIpC administration. For competitive transplantation of mobilized peripheral blood (PB), 150 ul of PB (CD45.2) was mixed with 2×10^5 congenic BM support cells and injected into lethally irradiated CD45.1 recipients. Cells were infused via lateral tail vein injection. Engraftment was monitored at 4-week intervals by FACS analysis.
(§1) Recombinant human G-CSF (Neupogen, Filgrastrim) was administered at 125 ug/kg of TBW every 12 hours for eight consecutive injections. Heparin Sodium (APP Pharmaceuticals) was injected i.p. at a single dose of 100 U. Hirudin was used at 40 mg/kg of TBW in a single dose. Vcam1 neutralizing antibody and the corresponding isotype control (Rat IgG2a, k) were injected intravenously at 2 mg/kg of TBW every day for three doses and PB samples were obtained through retro-orbital bleeding the day following the last injection. AMD3100 was administered subcutaneously at a single dose of 5 mg/kg TBW. PB samples were obtained through retro-orbital bleeding 3 hours after the last injection of G-CSF and 1 hour after Heparin, AMD3100, or Hirudin injection.

CD34+ cells = details: cited from earlier work
HSPC [2] = assay: HSPC mobilization in mice (background statements, GRO-β and heparin); assay type: in vivo; details: unlike G-CSF; data not shown
Method: It does so acutely, mobilizing HSPC maximally by 15 minutes post infusion in mice. […] It is an excellent candidate to serve as a niche-vacating agent. We have also recently identified a novel involvement of heparan sulfate proteoglycans […] in HSC retention in the bone marrow that can be manipulated pharmacologically to induce stem cell mobilization of cells functionally distinctive from those mobilized by G-CSF. This process is one that involves the use of heparin and AMD3100 and achieves robust mobilization using approved agents that can quickly move to clinical trial.

HSPC [3] = details: cited from earlier work
[4] = system: circulating hematopoietic stem/progenitor cells (HSPC); assay: Peripheral blood colony forming unit (CFU-C) assay of circulating progenitors after mobilization; assay type: in vivo, mice
Method: as §1
CFU assays were performed as previously described (Ferraro et al., 2011). Equal volumes of PB (50 to 200 juL depending upon the experiment) were subjected to red blood cell lysis with ammonium-chloride-potassium buffer, resuspended in 4 ml of methocult M3434 (Stem Cell Technologies), plated in 35 mm culture dishes (1 mL/dish) and cultured at 37° C. for 8 days before scoring for colony formation.

[5] = Peripheral WBC count (complete blood count) after mobilization; assay type: in vivo; details: C57BL/6J mice; heparin alone 100 U/mouse one hour before PB harvest, vs vehicle
Method: as §1
Blood counts were performed with the automatic Vetscan HM2 (Abaxis).

Vcam1 = Vcam1 protein level in CD45−Ter119−Mx1+ mesenchymal cells (flow cytometry); assay type: in vivo, mice; details: heparin one hour before PB harvest vs vehicle
Method: Immunophenotypic characterization of the hematopoietic and mesenchymal compartments was performed as previously described (Gurumurthy et al., 2010). For details see supplementary information. Vcam1 and Cxcl12 protein levels were evaluated with an anti-Vcam1-APC and an anti-Cxcl12-APC antibody respectively and the corresponding isotype controls (R&D Systems). All data collection was performed on an LSRII or FACS Aria II (Beckon Dickinson) and data analysis was performed with FlowJo (Treestar).
as §1

HSPCs = assay: Type I diabetes-induced mobilopathy model, G-CSF mobilization with PB competitive transplantation; assay type: in vivo, mice; details: G-CSF alone
Description: Hematopoietic stem cell transplantation remains the gold standard curative therapy for a number of hematological disorders. However, G-CSF mobilization resistance may compromise lifesaving therapy for some individuals. We therefore evaluated whether genetic or pharmacological competitive inhibition of HSPG may facilitate G-CSF-induced HSPC egress from the BM in a murine model of Type I diabetes-induced mobilopathy (Ferraro et al., 2011). […] However, the compromised response to G-CSF was fully corrected in Type I diabetic mice lacking Ext1 expression in Mx1+ mesenchymal cells (FIG. 9K).
For non-competitive BM transplantation, to create the chimeras described in FIG. 1a, one million whole BM cells from B6.SJL (CD45.1) mice were transplanted into lethally irradiated (9.5 Gy from a Cesium source 4-24 hours before transplantation) Ext1-loxP/loxP-Mx1cre (CD45.2) recipients six-to-eight weeks before pIpC administration. Neutrophil and platelet recovery assay was performed as previously described (Hoggatt et al., 2013). Briefly, 3 million mobilized PB mononuclear cells (MNC) from C57BL/6J (CD45.2) mice were transplanted into lethally irradiated B6.SJL (CD45.1) mice and followed up for at least 36 days. […] Engraftment was monitored at 4-week intervals by FACS analysis. […]

## c1cc(CN2CCCNCCNCCCNCC2)ccc1CN1CCCNCCNCCCNCC1 [AMD3100]
[1]; AMD3100 in combination with G-CSF vs G-CSF alone
  G-CSF-induced mobilization in Ext1 deficient mice (relative PB reconstitution): augments G-CSF-induced mobilization
CD34+ cells; after Plerixafor administration
  patients reporting diarrhea or injection site reaction: approximately 33%

## GRO-β: CXCR2 agonist chemokine capable of rapidly mobilizing HSPCs
HSPC [2]
  changes in marrow morphology by immunohistochemistry: not associated with changes in marrow morphology
HSPC [3]; mice
  time of maximal HSPC mobilization post infusion: 15 min
HSPC [3]; mouse, in vivo
  engraftment potential of mobilized long term repopulating HSCs compared with G-CSF: superior engraftment potential

## heparin
[4]; C57BL/6J mice, heparin alone 100 U/mouse one hour before PB harvest, vs vehicle (PBS)
  number of circulating HSPCs as measured by CFU assays: modest, yet significant increase; also recorded: enhanced HSPC mobilization compared to vehicle
[4]; heparin plus AMD3100 vs AMD3100 alone
  AMD3100-induced mobilization (CFU) with co-administration of heparin: enhances AMD3100-induced mobilization
[5]
  WBC counts: without a significant change
[1]
  potency of mobilization with AMD3100 compared with AMD3100 alone: enhance potency of mobilization compared with AMD3100 alone
  stem cell mobilization by the agent alone: Neither were sufficiently effective alone
[1]; heparin 100 U/mouse added to G-CSF regimen, vs G-CSF alone, secondary lethally irradiated recipients
  secondary engraftment / self-renewal of mobilized cells (serial transplantation): distinctly more capable at providing secondary engraftment
[1]; heparin added to G-CSF vs G-CSF alone, Ext1 mutant mice
  HSPC mobilization in Ext1 mutant (EXT1 KO) mice: loss of its effect
[1]; vs G-CSF alone
  mobilization of long term reconstituting cells (PB competitive transplantation, primary recipients): significantly enhances G-CSF induced mobilization
[1]; vs G-CSF alone, listed as heparin sulfate
  mobilization of long term reconstituting cells (PB competitive transplantation, primary recipients): additive mobilization of stem cells
Vcam1
  Vcam1 levels in Mx1+ mesenchymal cells: does not modulate Vcam1 levels
HSPC [3]; Frenette and Weiss, 2000
  ability to induce mobilization on its own: lack the ability to induce mobilization on its own

## hirudin
[1]; hirudin 40 mg/kg single dose with G-CSF, C57BL/6J mice
  effect on G-CSF-induced HSPC mobilization (relative PB reconstitution 16 weeks post transplantation): did not impact G-CSF-induced HSPC mobilization

## protamine sulfate
[1]
  potency of mobilization with AMD3100 compared with AMD3100 alone: enhance potency of mobilization compared with AMD3100 alone
  stem cell mobilization by the agent alone: Neither were sufficiently effective alone

B1: G-CSF: Recombinant human G-CSF, hematopoietic growth factor used clinically to mobilize HSC and HPC (protein, UniProt P09919 31-207, looked up)
Granulocyte …: TPLGPASSLPQSFLLKCLEQVRKIQGDGAALQEKLVSECATYKLCHPEELVLLGHSLGIPWAPLSSCPSQALQLAGCLSQLHSGLFLYQGLLQALEGISPELGPTLDTLQLDVADFATTIWQQMEELGMAPALQPTQGAMPAFASAFQRRAGGVLVASHLQSFLEVSYRVLRHLAQP
modifications: filgrastim
notes: Recombinant human G-CSF, hematopoietic growth factor used clinically to mobilize HSC and HPC
HSPCs
  HSPC mobilization in Type I diabetic mice: failed to efficiently mobilize HSPCs
CD34+ cells; normal, healthy donors
  poor mobilization in response to G-CSF, share of normal, healthy donors: 15%
CD34+ cells; patients, G-CSF mobilization
  patients failing to mobilize an optimal CD34+ cell number for autologous transplantation: Up to 60%
